One series relates to acetylated α-tubulin. Description: cell-based assay of MT-stabilization: acetylated α-tubulin in QBI293 cell lysates by ELISA. Particulars: for fold induction at 1 µM: QBI293. Here is the method:
(§1) All test compounds were evaluated in a previously described cell-based assay of MT-stabilization (see Kovalevich, J., et al. (2016) Characterization of Brain-Penetrant Pyrimidine-Containing Molecules with Differential Microtubule-Stabilizing Activities Developed as Potential Therapeutic Agents for Alzheimer's Disease and Related Tauopathies. J Pharmacol Exp Ther 357, 432-450, incorporated herein by reference), in which compound-dependent changes in tubulin polymerization and total tubulin levels were determined after 4 h of incubation of QBI293 cells with 1 and 10 μM compound via quantification of acetylated α-tubulin and total tubulin in cell lysates by ELISA.
(§2) Novel C6 nitrile- and alkyne-substituted triazolopyrimidine examples that have improved in vitro activity relative to previously described examples, with the general structure depicted in Formula I. The activity of the novel C6-nitrile substituted compounds were tested in a previously described cellular assay of MT-stabilization (Kovalevich, J., et al. (2016)). As summarized in Table 2. below, eighteen examples were synthesized and tested. In all cases, these compounds were confirmed to be active Class I triazolopyrimidines. […] Table 2 provides fold-changes in acetylated α-tubulin and total α-tubulin levels in QB1293 cells after 4 h incubation with test compounds at either 1 or 10 μM. Data are expressed as the fold-change relative to vehicle-treated cells. *p<0.05 and **p<0.01 by one-way ANOVA.
(§3) Compounds produced according to the preceding synthetic schemes were for microtubule stabilization. Fold-changes in acetylated α-tubulin (AcTub) and α-tubulin (α-Tub) levels in QB1293 cells after 4 h incubation with test compounds at either 1 or 10 μM. Reported values for AcTub and α-Tub represent the fold-change over control (DMSO)-treated cells (*p<0.05 and **p<0.01 by one-way ANOVA); numbers in parentheses represent the fold-change of AcTub over positive control-treated cells (i.e., 100 nM of cevipabulin). Changes of +/−15% of control are deemed to be within the day-to-day assay variability and non-significant.
In general terms: An ELISA detects its analyte on a solid surface through an enzyme-linked reagent.

The test system of a further series is total α-tubulin. As to the kind of experiment: cell-based assay of MT-stabilization: total α-tubulin in QBI293 cell lysates by ELISA. Particulars: QB1293 cells. Here is the method:
as §1, §2, §3

Another series deals with MTs. Particulars: versus vincristine, taxol, colchicine; cited from earlier work.
The nature of series [1]: Plasma and brain compound determinations (LC-MS/MS). Particulars: CD1 mice, 2.5 mg/kg each, one hour after dosing; for concentration at 1 h / Kp at 1 h: CD1, mouse, 2.5 mg/kg. Type of series: in vivo. Here is the method:
CD1 mice (n=3) were dosed concurrently with CNDR-51990 and CNDR-51993 (representing a 1:1 mixture of two diastereoisomers, 52017 (67) and 52016 (68)) at 2.5 mg/kg each). One hour after dosing, mice were euthanized and blood collected, followed by perfusion with saline. Mouse brains were homogenized in 10 mM ammonium acetate, pH 5.7 (1:2; w/v) using a handheld sonic homogenizer. Mouse plasma was obtained from blood that was collected into a 1.5 ml tube containing 0.5M EDTA solution and which was centrifuged for 10 minutes at 4500 g at 4° C. Aliquots (50 μl) of brain homogenates or plasma were mixed with 0.2 ml of acetonitrile, centrifuged at 15,000×g, and the resulting supernatant was used for subsequent LC-MS/MS analysis. The LC-MS/MS analysis was conducted by Inotiv, Inc., utilizing methods essentially as previously described (Lou et al., J. Med. Chem. 57:6116-27, 2014).

The next series in a line: B/P of Table 4. Particulars: in vivo.
Where [2] appears, read: QB1293 cells, 4 h incubation, 1 μM compound, relative to vehicle-treated cells, *p<0.05, **p<0.01, read-out: AcTub l μM (fold-change in acetylated α-tubulin).
Setting [3] is: QBI293, 4 h, 4 h incubation, 1 μM compound, relative to vehicle-treated cells, read-out: α-Tub 1 μM (fold-change in total α-tubulin).
Setting [4] is: QBI293, 4 h, 4 h incubation, 10 μM compound, relative to vehicle-treated cells, read-out: α-Tub 10 μM (fold-change in total α-tubulin).
Where [5] appears, read: dosed concurrently, individual animals 1-3, listed as 51990 (70).
Where [6] appears, read: Table 4, QB1293 cells, 4 h, 1 μM, *p<0.05, **p<0.01, read-out: AcTub 1 μM (fold-change over control (DMSO)-treated cells).
The mark [7] stands for this setting: QBI293, 4 h, Table 4, 4 h, 1 μM, read-out: α-Tub l μM (fold-change over control (DMSO)-treated cells).
The mark [8] stands for this setting: QBI293, 4 h, Table 4, 4 h, 10 μM, read-out: α-Tub 10 μM (fold-change over control (DMSO)-treated cells).

Where “and” joins values, the source holds several entries; their conditions need not be identical. Equal entries are not always repeated. Structures can show the parent of a compound that is named as a salt. Where two headings read alike, the source gives them in different places.

Consider “4-(5-chloro-7-(piperidin-1-yl)-[1,2,4]triazolo[1,5-a]pyrimidin-6-yl)-3,5-difluorobenzonitrile [Compound 74]”, for which the Class in the series with acetylated α-tubulin (Table 2, triazolopyrimidine MT-activity class) worked out at 1. Besides, the “α-Tub 1 μM (fold-change in total α-tubulin)” value in the series with total α-tubulin (4 h incubation, 1 μM compound, relative to vehicle-treated cells) is 0.98 +/− 0.02 fold-change. Also, the “α-Tub 10 μM (fold-change in total α-tubulin)” value with total α-tubulin (4 h incubation, 10 μM compound, relative to vehicle-treated cells) is 0.95 +/− 0.03 fold-change.

Turning to `CNCCCOc1cc(F)c(-c2c(Cl)nc3ncnn3c2N[C@@H](C)C(F)(F)F)c(F)c1` [Cevipabulin], in the series with MTs, the “competition for binding to MTs” value is “competes with vincristine but not taxol or colchicine”.

As to `CC(C)[C@@H](Nc1c(-c2c(F)cc(C#N)cc2F)c(Cl)nc2ncnn12)C(F)(F)F` [Compound 62, (R)-4-(5-chloro-7-((1,1,1-trifluoro-3-methylbutan-2-yl)amino)-[1,2,4]triazolo[1,5-a]pyrimidin-6-yl)-3,5-difluorobenzonitrile], the values for the fold induction at 1 µM in the series with acetylated α-tubulin (setting [2]) and in the series on total α-tubulin (setting [3]) were 0.99 ± 0.06 and 1.02, respectively. In addition, the fold induction at 10 µM with total α-tubulin (setting [4]) turned out to be 1.01.

For `CC(C)[C@@H](C)Nc1c(-c2ccc(C#N)cc2F)c(Cl)nc2ncnn12` [Compound 67, (R)-4-(5-chloro-7-((3-methylbutan-2-yl)amino)-[1,2,4]triazolo[1,5-a]pyrimidin-6-yl)-3-fluorobenzonitrile], the “AcTub l μM (fold-change in acetylated α-tubulin)” value in the series on acetylated α-tubulin (QB1293 cells, 4 h incubation, 1 μM compound, relative to vehicle-treated cells, *p<0.05, **p<0.01, listed as 52017 (67)) is listed as 2.79 +/− 1.11 fold-change. In the series with total α-tubulin (setting [3]), the fold induction at 1 µM was found to be 0.99. The fold induction at 10 µM in the series on total α-tubulin (setting [4]) came to 0.93.

`C[C@@H](Nc1c(-c2ccc(C#N)cc2F)c(Cl)nc2ncnn12)C(C)(C)C` [Compound 70, (R)-4-(5-Chloro-7-((3,3-dimethylbutan-2-yl)amino)-[1,2,4]triazolo[1,5-a]pyrimidin-6-yl)-3-fluorobenzonitrile]: in the series on acetylated α-tubulin (QB1293 cells, 4 h incubation, 10 μM compound, relative to vehicle-treated cells, *p<0.05, **p<0.01), the “AcTub 10 μM (fold-change in acetylated α-tubulin)” value is 7.67 ± 0.70 fold-change. In addition, the fold induction at 1 µM with total α-tubulin (setting [3]) was determined as 0.86. Further, the fold induction at 10 µM in the series with total α-tubulin (setting [4]) came out at 0.93. In addition, the concentration at 1 h is 158 ng/g in series [1] (brain, dosed concurrently, individual animals 1-3, read-out: Brain Concentration); 183 ng/g in series [1] (brain, dosed concurrently, mean, n=3, read-out: Brain Concentration, Mean); 175 ng/mL in series [1] (plasma, dosed concurrently, individual animals 1-3, read-out: Plasma Concentration); 151 ng/mL in series [1] (plasma, dosed concurrently, mean, n=3, read-out: Plasma Concentration, Mean). For the same compound, the Kp at 1 h in series [1] (brain, individual animals 1-3, read-out: Brain/Plasma) worked out at 0.9; in series [1] (brain, mean, n=3, read-out: Brain/Plasma, Mean), 1.21. Also, the “Brain Concentration” value in series [1] (setting [5]) was 186 ng/g and 206 ng/g. Also, in series [1] (setting [5]), the “Plasma Concentration” value is 133 ng/mL and 146 ng/mL. In addition, the Brain/Plasma in series [1] (individual animals 1-3, listed as 51990 (70)) was 1.40 and 1.41.

`N#Cc1cc(F)c(-c2c(Cl)nc3ncnn3c2N2CCCCC2)c(F)c1` [Compound 73]: the fold induction at 1 µM with acetylated α-tubulin (setting [2]) and in the series with total α-tubulin (setting [3]) was 1 throughout. Moreover, in the series with total α-tubulin (setting [4]), the fold induction at 10 µM is 1.07.

Regarding `C[C@@H](Nc1c(-c2c(F)cc(C#CCN(C)C)cc2F)c(Cl)nc2ncnn12)C(C)(C)C` [TAL-555, (R)-5-chloro-6-(4-(3-(dimethylamino)prop-1-yn-1-yl)-2,6-difluorophenyl)-N-(3,3-dimethylbutan-2-yl)-[1,2,4]triazolo[1,5-a]pyrimidin-7-amine], the fold induction at 1 µM in the series on acetylated α-tubulin (setting [6]) turned out to be 1.36; with total α-tubulin (QBI293, Table 4, 4 h, 1 μM, read-out: α-Tub l μM (fold-change over control (DMSO)-treated cells)), 1. Moreover, the fold induction at 10 µM with total α-tubulin (QBI293, Table 4, 4 h, 10 μM, read-out: α-Tub 10 μM (fold-change over control (DMSO)-treated cells)) worked out at 0.84.

With `C[C@@H](Nc1c(-c2c(F)cc(C#CCCN)cc2F)c(Cl)nc2ncnn12)C(C)(C)C` [TAL-580, (R)-6-(4-(4-aminobut-1-yn-1-yl)-2,6-difluorophenyl)-5-chloro-N-(3,3-dimethylbutan-2-yl)-[1,2,4]triazolo[1,5-a]pyrimidin-7-amine hydrochloride], in the series on total α-tubulin (setting [7]), the fold induction at 1 µM is 0.96. In addition, the fold induction at 10 µM with total α-tubulin (setting [8]) was 0.91. In addition, the Kp in the series “B/P of Table 4” worked out at 1.04.

Regarding `CC(C)[C@@H](C)Nc1c(-c2c(F)cc(C#CCCO)cc2F)c(Cl)nc2ncnn12` [TAL-598, (R)-4-(4-(5-chloro-7-((3-methylbutan-2-yl)amino)-[1,2,4]triazolo[1,5-a]pyrimidin-6-yl)-3,5-difluorophenyl)but-3-yn-1-ol], the fold induction at 1 µM in the series on total α-tubulin (setting [7]) turned out to be 0.92. Further, the Kp in “B/P of Table 4” came to 0.44.

As for `CC(C)[C@@H](C)Nc1c(-c2c(F)cc(C#CCCCO)cc2F)c(Cl)nc2ncnn12` [TAL-599, (R)-5-(4-(5-chloro-7-((3-methylbutan-2-yl)amino)-[1,2,4]triazolo[1,5-a]pyrimidin-6-yl)-3,5-difluorophenyl)pent-4-yn-1-ol], the fold induction at 1 µM in the series with acetylated α-tubulin (setting [6]) was found to be 2.6; with total α-tubulin (setting [7]), 1.

With `C[C@@H](Nc1c(-c2c(F)cc(C#CCCO)cc2F)c(Cl)nc2ncnn12)C(C)(C)C` [TAL-600, (R)-4-(4-(5-chloro-7-((3,3-dimethylbutan-2-yl)amino)-[1,2,4]triazolo[1,5-a]pyrimidin-6-yl)-3,5-difluorophenyl)but-3-yn-1-ol], the fold induction at 1 µM in the series on total α-tubulin (setting [7]) is 0.98. For the same compound, the fold induction at 10 µM in the series with total α-tubulin (setting [8]) was 0.98. For the same compound, the Kp in “B/P of Table 4” amounted to 0.47.

Regarding `C[C@H](Nc1c(-c2c(F)cc(I)cc2F)c(Cl)nc2ncnn12)C(F)(F)F` [TAL-640], the fold induction at 1 µM with acetylated α-tubulin (setting [6]) was determined as 1.9; in the series with total α-tubulin (setting [7]) it was 1.01. The fold induction at 10 µM with total α-tubulin (setting [8]) was determined as 0.93.

`[2H]C([2H])(O)CC#Cc1cc(F)c(-c2c(Cl)nc3ncnn3c2N[C@H](C)C(C)(C)C)c(F)c1` [TAL-651, (R)-4-(4-(5-chloro-7-((3,3-dimethylbutan-2-yl)amino)-[1,2,4]triazolo[1,5-a]pyrimidin-6-yl)-3,5-difluorophenyl)but-3-yn-1,1-d2-1-ol]: in the series with total α-tubulin (setting [7]), the fold induction at 1 µM is 1.02. Also, in the series with total α-tubulin (setting [8]), the fold induction at 10 µM turned out to be 1.01. This compound displayed a Kp in the series “B/P of Table 4” of 0.46.

As for `Cc1nc2nc(Cl)c(-c3c(F)cc(C#CCCO)cc3F)c(N(C)[C@H](C)C(C)C)n2n1` [TAL-665, (R)-4-(4-(5-chloro-2-methyl-7-(methyl(3-methylbutan-2-yl)amino)-[1,2,4]triazolo[1,5-a]pyrimidin-6-yl)-3,5-difluorophenyl)but-3-yn-1-ol], the fold induction at 1 µM in the series with acetylated α-tubulin (setting [6]) stood at 1.05; with total α-tubulin (setting [7]) it was 0.91. The fold induction at 10 µM in the series with total α-tubulin (setting [8]) is 0.96.
